# Test results: patent publication US20190247353A1, “ACNE STRAIN-SELECTIVE ANTIBACTERIAL AGENT” (MOMOTANI JUNTENKAN CO., LTD., priority 2016, published 2019)
# Read-outs that look alike come from different tables or passages of the source.
# Legend:
# Format in all cases: cell-based, Propionibacterium acnes
# [1] = system: HL053PA1 strain (RT4) and HL043PA1 strain (RT5) versus HL110PA3 strain (RT6); test: Strain-selective antibacterial activity (average of MICRT6/MICRT4 and MICRT6/MICRT5)
# Description: Herein, “acne strain-selective antibacterial activity” or “strain-selective antibacterial activity” means an index indicating better inhibition of growth of a dominant strain in acne patients compared to that of a dominant strain in healthy subjects. It is expressed by the average value of the values (MICRT6/MICRT4, and MICRT6/MICRTS) obtained by dividing the minimum inhibitory concentration (MIC) of an object substance with respect to the dominant strain in healthy subjects (RT6 strain) (MICRT6) respectively by the MIC of the object substance with respect to the dominant strain in acne patients (RT4 strain) (MICRT4), and by the MIC of the object substance with respect to the dominant strain in acne patients (RT5 strain) (MICRT5).
# The strain-selective antibacterial activity of each test substance (Table 2, right-most column) was evaluated based on the following rating criteria (Table 3). When the strain-selective antibacterial activity is indicated by a numerical range, the rating was based on the minimum value thereof.
# HL110PA3 strain (RT6) [2] = test: MIC by broth microdilution method, HL110PA3 strain; conditions: for MIC: Cutibacterium acnes
# Method: (§1) An MIC is measured herein according to the broth microdilution method which is the standard method of Japanese Society of Chemotherapy.
# (§2) The antibacterial activity of a test substance was determined based on the minimum inhibitory concentration (MIC). An MIC was measured according to the broth microdilution method which is the standard method of Japanese Society of Chemotherapy.
# (§3) One-loopful of each acne bacterium strain listed in Table 1 was scraped off and inoculated into 5 mL of a GAM broth slant agar medium (pH 7.0, Nissui Pharmaceutical Co., Ltd.).
# (§4) The inoculated acne bacterium strain was precultured at 37° C. in a nitrogen atmosphere (anaerobic condition) for 48 hours. The precultured microbial cells were diluted in a modified GAM broth liquid medium (pH 6.0) to a concentration of 5.0×10^4 cfu/mL (viable cell count per OD660=1 is 2.0×10^9 cfu/mL), to prepare strain suspensions.
# (§5) Each fatty acid (Tokyo Chemical Industry Co., Ltd.) listed in Table 2 was dissolved in dimethylsulfoxide (DMSO) as a solvent such that the concentration became 10,000 μg/mL, and used as a test substance.
# (§6) Each of strain suspensions (5.0×10^4 cfu/mL) was aliquoted in a 96-well round bottom microplate, each of the test substance (fatty acid concentration 10,000 μg/mL) was added at a 1/10 volume to the aliquot and mixed to prepare measurement samples (fatty acid concentration: 1,000 μg/mL). Measurement samples in 2-fold dilution series were prepared using the strain suspension (fatty acid concentration from 0.48 to 1,000 μg/mL).
# (§7) […] The presence or absence of a precipitation of test microbial cells after the incubation was examined and the minimum concentration at which the precipitation of microbial cells […] was regarded as the MIC (μg/mL) of the test substance against the acne bacterium strain.
# HL043PA1 strain (RT5) = test: MIC by broth microdilution method, HL043PA1 strain; conditions: for MIC: Cutibacterium acnes
# Method: as §1, §2, §3
# The inoculated acne bacterium strain was precultured at 37° C. in a nitrogen atmosphere (anaerobic condition) for 48 hours. […]
# as §5, §6
# The measurement samples were incubated under an anaerobic condition at 37° C. for 2 days. The presence or absence of a precipitation of test microbial cells after the incubation was examined and the minimum concentration at which the precipitation of microbial cells […] was regarded as the MIC (μg/mL) of the test substance against the acne bacterium strain.
# HL053PA1 strain (RT4) = test: MIC by broth microdilution method, HL053PA1 strain; conditions: for MIC: Cutibacterium acnes
# Method: as §1, §2, §3, §4, §5, §6, §7
# HL110PA3 strain (RT6) [3] = test: MIC by broth microdilution method, HL110PA3 strain; conditions: Cutibacterium acnes; monoacylglycerols, Example 3, method as Example 1; read-out: MIC against acne bacterium strain HL110PA3 strain (RT6)
# [4] = 48 h, pH 6.0 modified GAM broth, anaerobic, 37° C., 2 days (Example 1), read-out: MIC against acne bacterium strain HL110PA3 strain (RT6)
# [5] = 48 h, pH 6.0 modified GAM broth, anaerobic, 37° C., 2 days (Example 1), read-out: MIC against acne bacterium strain HL043PA1 strain (RT5)
# [6] = 48 h, pH 6.0 modified GAM broth, anaerobic, 37° C., 2 days (Example 1), read-out: MIC against acne bacterium strain HL053PA1 strain (RT4)
# [7] = monoacylglycerols, Example 3, method as Example 1
# [8] = control antibacterial agents, Comparative Example 1
# [9] = control antibacterial agents, Comparative Example 1, method as Example 1
compound,measurement,setting,value
"CCCCCCCC(=O)O [Caprylic acid (C8:0), Caprylic acid, reference compound]",Strain-selective antibacterial activity,[1]; pH 6.0 (Example 1),0.50
same,MIC,HL110PA3 strain (RT6) [2]; [4],125 µg/mL
same,MIC,HL043PA1 strain (RT5); [5],250 µg/mL
same,MIC,HL053PA1 strain (RT4); [6],250 µg/mL
CCCCCCCCCCCCCCCCCC(=O)OCC(O)CO (stereo not shown) [Monostearin],MIC,"HL043PA1 strain (RT5); monoacylglycerols, Example 3, method as Example 1, read-out: MIC against acne bacterium strain HL043PA1 strain (RT5)",> 1000 µg/mL
same,MIC,"HL053PA1 strain (RT4); monoacylglycerols, Example 3, method as Example 1, read-out: MIC against acne bacterium strain HL053PA1 strain (RT4)",> 1000 µg/mL
same,MIC,HL110PA3 strain (RT6) [3],> 1000 µg/mL
"CCCCCCCCCCC(=O)O [Undecanoic acid (C11:0), Undecanoic acid, reference compound]",Strain-selective antibacterial activity,[1]; pH 6.0 (Example 1),1.0
same,MIC,HL110PA3 strain (RT6) [2]; [4],15.6 µg/mL
same,MIC,HL043PA1 strain (RT5); [5],15.6 µg/mL
same,MIC,HL053PA1 strain (RT4); [6],15.6 µg/mL
CCCCCCCCCCCCCCC(=O)OCC(O)CO (stereo not shown) [Monopentadecanoin],Strain-selective antibacterial activity,"[1]; monoacylglycerols, Example 3",6.0
same,MIC against acne bacterium strain HL110PA3 strain (RT6),HL110PA3 strain (RT6) [2]; [7],62.5 µg/mL
same,MIC against acne bacterium strain HL043PA1 strain (RT5),HL043PA1 strain (RT5); [7],7.81 µg/mL
same,MIC against acne bacterium strain HL053PA1 strain (RT4),HL053PA1 strain (RT4); [7],15.6 µg/mL
"CCCCCC/C=C\CCCCCCCC(=O)O [Palmitoleic acid (C16:1), Palmitoleic acid, reference compound]",Strain-selective antibacterial activity,[1]; pH 6.0 (Example 1),1.2
same,MIC,HL110PA3 strain (RT6) [2]; [4],15.6 µg/mL
same,MIC,HL043PA1 strain (RT5); [5],7.81 µg/mL
same,MIC,HL053PA1 strain (RT4); [6],31.3 µg/mL
Cc1cc(O)ccc1C(C)C [reference compound],Strain-selective antibacterial activity,[1]; [8],0.50
same,MIC against acne bacterium strain HL110PA3 strain (RT6),HL110PA3 strain (RT6) [2]; [9],62.5 µg/mL
same,MIC against acne bacterium strain HL043PA1 strain (RT5),HL043PA1 strain (RT5); [9],125 µg/mL
same,MIC against acne bacterium strain HL053PA1 strain (RT4),HL053PA1 strain (RT4); [9],125 µg/mL
CCCCCCCCCCCCCC(=O)OCC(O)CO (stereo not shown) [Monomyristin],Strain-selective antibacterial activity,"[1]; monoacylglycerols, Example 3",>2.0
same,MIC against acne bacterium strain HL110PA3 strain (RT6),HL110PA3 strain (RT6) [2]; [7],>1000 µg/mL
same,MIC against acne bacterium strain HL043PA1 strain (RT5),HL043PA1 strain (RT5); [7],500 µg/mL
same,MIC against acne bacterium strain HL053PA1 strain (RT4),HL053PA1 strain (RT4); [7],500 µg/mL
"CCCCCCC(=O)O [Heptanoic acid (C7:0), Heptanoic acid, reference compound]",Strain-selective antibacterial activity,[1]; pH 6.0 (Example 1),1.0
same,MIC,HL110PA3 strain (RT6) [2]; [4],125 µg/mL
same,MIC,HL043PA1 strain (RT5); [5],125 µg/mL
same,MIC,HL053PA1 strain (RT4); [6],125 µg/mL
"CCCCCCCCCCCCC(=O)O [Tridecanoic acid (C13:0), Tridecanoic acid, reference compound]",Strain-selective antibacterial activity,[1]; pH 6.0 (Example 1),0.75
same,MIC,HL110PA3 strain (RT6) [2]; [4],15.6 µg/mL
same,MIC,HL043PA1 strain (RT5); [5],31.3 µg/mL
same,MIC,HL053PA1 strain (RT4); [6],15.6 µg/mL
"CCCCCCCCCCCC(=O)O [Lauric acid (C12:0), Lauric acid, reference compound]",MIC,HL110PA3 strain (RT6) [2]; [4],15.6 µg/mL
same,MIC,HL043PA1 strain (RT5); [5],31.3 µg/mL
same,MIC,HL053PA1 strain (RT4); [6],15.6 µg/mL
"CCCCCCCCCCCCCCCCCC(=O)O [Stearic acid (C18:0), Stearic acid]",Strain-selective antibacterial activity,[1]; pH 7.0,24
same,Strain-selective antibacterial activity at each pH,[1]; pH 7 (summary Table 10),24
same,MIC,HL110PA3 strain (RT6) [2]; [4],> 1000 µg/mL
same,MIC,"HL110PA3 strain (RT6) [2]; 72 h, pH 5.5, estimated from the growth on day 3, read-out: MIC against acne bacterium strain HL110PA3 strain (RT6)",> 1000 µg/mL
same,MIC,"HL110PA3 strain (RT6) [2]; 96 h, pH 5.0, estimated from the growth on day 4, read-out: MIC against acne bacterium strain HL110PA3 strain (RT6)",> 1000 µg/mL
same,MIC,"HL110PA3 strain (RT6) [2]; pH 6.5, read-out: MIC against acne bacterium strain HL110PA3 strain (RT6)",> 1000 µg/mL
same,MIC,"HL110PA3 strain (RT6) [2]; pH 7.0, read-out: MIC against acne bacterium strain HL110PA3 strain (RT6)",1000 µg/mL
same,MIC,HL043PA1 strain (RT5); [5],> 1000 µg/mL
same,MIC,"HL043PA1 strain (RT5); 72 h, pH 5.0, estimated from the growth on day 3, read-out: MIC against acne bacterium strain HL043PA1 strain (RT5)",> 1000 µg/mL
same,MIC,"HL043PA1 strain (RT5); pH 6.5, read-out: MIC against acne bacterium strain HL043PA1 strain (RT5)",> 1000 µg/mL
same,MIC,"HL043PA1 strain (RT5); pH 7.0, read-out: MIC against acne bacterium strain HL043PA1 strain (RT5)",31.3 µg/mL
same,MIC,HL053PA1 strain (RT4); [6],> 1000 µg/mL
same,MIC,"HL053PA1 strain (RT4); 72 h, pH 5.0, estimated from the growth on day 3, read-out: MIC against acne bacterium strain HL053PA1 strain (RT4)",> 1000 µg/mL
same,MIC,"HL053PA1 strain (RT4); pH 5.5, read-out: MIC against acne bacterium strain HL053PA1 strain (RT4)",> 1000 µg/mL
same,MIC,"HL053PA1 strain (RT4); pH 6.5, read-out: MIC against acne bacterium strain HL053PA1 strain (RT4)",> 1000 µg/mL
same,MIC,"HL053PA1 strain (RT4); pH 7.0, read-out: MIC against acne bacterium strain HL053PA1 strain (RT4)",62.5 µg/mL
"CCCCCC(=O)O [Caproic acid (C6:0), Caproic acid, reference compound]",Strain-selective antibacterial activity,[1]; pH 6.0 (Example 1),1.0
same,MIC,"HL110PA3 strain (RT6) [2]; 48 h, pH 6, read-out: MIC against acne bacterium strain HL110PA3 strain (RT6)",62.5 µg/mL
same,MIC,"HL043PA1 strain (RT5); 48 h, pH 6, read-out: MIC against acne bacterium strain HL043PA1 strain (RT5)",62.5 µg/mL
same,MIC,"HL053PA1 strain (RT4); 48 h, pH 6, read-out: MIC against acne bacterium strain HL053PA1 strain (RT4)",62.5 µg/mL
"CCCCCCCC/C=C\CCCCCCCC(=O)O [Oleic acid (C18:1), Oleic acid]",Strain-selective antibacterial activity,[1]; pH 6.0 (Example 1),>9.0
same,Strain-selective antibacterial activity at each pH,[1]; pH 6 (summary Table 10),>9
same,MIC,HL110PA3 strain (RT6) [2]; [4],> 1000 µg/mL
same,MIC,HL043PA1 strain (RT5); [5],62.5 µg/mL
same,MIC,HL053PA1 strain (RT4); [6],500 µg/mL
"CCCCCCCCCC(=O)O [Capric acid (C10:0), Capric acid, reference compound]",Strain-selective antibacterial activity,[1]; pH 6.0 (Example 1),0.50
same,MIC,HL110PA3 strain (RT6) [2]; [4],250 µg/mL
same,MIC,HL043PA1 strain (RT5); [5],500 µg/mL
same,MIC,HL053PA1 strain (RT4); [6],500 µg/mL
"Oc1cc(Cl)ccc1Oc1ccc(Cl)cc1Cl [Triclosan, reference compound]",Strain-selective antibacterial activity,[1]; [8],3.0
same,MIC,HL110PA3 strain (RT6) [2]; read-out: MIC against acne bacterium strain HL110PA3 strain (RT6),3.9 µg/mL
same,MIC,HL043PA1 strain (RT5); read-out: MIC against acne bacterium strain HL043PA1 strain (RT5),1.95 µg/mL
same,MIC,HL053PA1 strain (RT4); read-out: MIC against acne bacterium strain HL053PA1 strain (RT4),0.975 µg/mL
CCCCCCCCCCCCCCCC(=O)OCC(O)CO (stereo not shown) [Monopalmitin],Strain-selective antibacterial activity,"[1]; monoacylglycerols, Example 3",18
same,MIC against acne bacterium strain HL110PA3 strain (RT6),HL110PA3 strain (RT6) [2]; [7],1000 µg/mL
same,MIC against acne bacterium strain HL043PA1 strain (RT5),HL043PA1 strain (RT5); [7],31.3 µg/mL
same,MIC against acne bacterium strain HL053PA1 strain (RT4),HL053PA1 strain (RT4); [7],250 µg/mL
"CCCCCCCCC(=O)O [Nonanoic acid (C9:0), Nonanoic acid, reference compound]",Strain-selective antibacterial activity,[1]; pH 6.0 (Example 1),0.75
same,MIC,HL110PA3 strain (RT6) [2]; [4],250 µg/mL
same,MIC,HL043PA1 strain (RT5); [5],250 µg/mL
same,MIC,HL053PA1 strain (RT4); [6],500 µg/mL
